This is an account of results in patent US7317020B2, “Isolation and structure of Cribrostatin 6” (Arizona Board of Regents, a body corporate of the State of …, priority 2003, dated 2008).

What is called GI50 is the concentration at which growth is held to half of that of the control.

For one assay, the system named is fungi. To be noted: in words; Pettit et al., J. Nat. Prod. 2000; cited from earlier work.
The subject of another assay is bacteria. Conditions: in words; Pettit et al., J. Nat. Prod. 2000; cited from earlier work.
Assay [1] relates to Penicillin-resistant S. pneumoniae (clinical isolate). The assay is described as follows: Broth microdilution susceptibility assay. It counts as cell-based. Conditions: Streptococcus pneumoniae, read-out: Minimum Inhibitory Concentration. The source says:
(§1) Compounds were screened against bacteria and fungi according to established broth microdilution susceptibility assays, pursuant to the National Committee for Clinical Laboratory Standards, Methods for Dilution Antimicrobial Susceptibility Tests for Bacteria that Grow Aerobically, Approved Standard M7-A4, Wayne, Pa.: NCCLS, 1997, and the National Conmnittee for Clinical Laboratory Standards, Reference Method for Broth Dilution Antifungal Susceptibility Testing of Yeasts, Approved Standard M27-A, Wayne, Pa.: NCCLS, 1997. The minimum inhibitory concentration was defined as the lowest concentration of compound that inhibited all visible growth of the test organism (optically clear). Assays were repeated on separate days.

The test system of assay [2] is Invasive S. pneumoniae (clinical isolate). The assay is described as follows: Broth microdilution susceptibility assay. In kind it is cell-based. To be noted: Streptococcus pneumoniae, read-out: Minimum Inhibitory Concentration.
Source text: as §1
A general note: Broth dilution looks for growth in wells or tubes with falling amounts of substance.

For assay [3], the system named is Micrococcus luteus (Presque Isle 456). Put plainly: Broth microdilution susceptibility assay. It counts as cell-based. To be noted: read-out: Minimum Inhibitory Concentration.
Source text: as §1

Assay [4] relates to Stenotrophomonas maltophilia (ATCC 13637). The assay is described as follows: Broth microdilution susceptibility assay. It counts as cell-based. Conditions: ATCC13637, read-out: Minimum Inhibitory Concentration.
Source text: as §1

In assay [5] the test system is Neisseria gonorrhoeae (ATCC 49226). The assay is described as follows: Broth microdilution susceptibility assay. In kind it is cell-based. To be noted: ATCC49226, read-out: Minimum Inhibitory Concentration.
Source text: as §1

Assay [6] has as its system Candida albicans (ATCC 90028). Put plainly: Broth microdilution susceptibility assay. In kind it is cell-based. Conditions: ATCC90028, read-out: Minimum Inhibitory Concentration.
Source text: as §1

Assay [7] deals with Streptococcus pneumoniae (ATCC 6303). The assay is described as follows: Broth microdilution susceptibility assay. In kind it is cell-based. To be noted: ATCC6303, read-out: Minimum Inhibitory Concentration.
Source text: as §1

The subject of assay [8] is Enterobacter cloacae (ATCC 13047). Put plainly: Broth microdilution susceptibility assay. It counts as cell-based. To be noted: ATCC13047, read-out: Minimum Inhibitory Concentration.
Source text: as §1

Assay [9] deals with Group A Streptococcus (clinical isolate). The assay is described as follows: Broth microdilution susceptibility assay. To be noted: read-out: Minimum Inhibitory Concentration. It counts as cell-based.
Source text: as §1

Assay [10] concerns Staphylococcus aureus (ATCC 29213). Put plainly: Broth microdilution susceptibility assay. In kind it is cell-based. Conditions: ATCC29213, read-out: Minimum Inhibitory Concentration.
Source text: as §1

Assay [11] deals with Vancomycin-resistant E. faecalis (clinical isolate). Put plainly: Broth microdilution susceptibility assay. Conditions: Enterococcus faecalis, read-out: Minimum Inhibitory Concentration. It counts as cell-based.
Source text: as §1

Assay [12] has as its system Methicillin-resistant S. aureus (clinical isolate). Put plainly: Broth microdilution susceptibility assay. To be noted: Staphylococcus aureus, read-out: Minimum Inhibitory Concentration. It counts as cell-based.
Source text: as §1

Assay [13] concerns Cryptococcus neoformans (ATCC 90112). The assay is described as follows: Broth microdilution susceptibility assay. It counts as cell-based. To be noted: ATCC90112, read-out: Minimum Inhibitory Concentration.
Source text: as §1

Assay [14] concerns Escherichia coli (ATCC 25922). Put plainly: Broth microdilution susceptibility assay. In kind it is cell-based. To be noted: ATCC25922, read-out: Minimum Inhibitory Concentration.
Source text: as §1

Assay [15] relates to Enterococcus faecalis (ATCC 29212). Put plainly: Broth microdilution susceptibility assay. In kind it is cell-based. To be noted: ATCC29212, read-out: Minimum Inhibitory Concentration.
Source text: as §1

In assay [16] the test system is Bacillus subtilis (clinical isolate). Put plainly: Broth microdilution susceptibility assay. Conditions: read-out: Minimum Inhibitory Concentration. It counts as cell-based.
Source text: as §1

The test system of a further assay is MCF-7. The assay is described as follows: Cancer cell growth inhibition, human cancer cell line panel. In kind it is cell-based. To be noted: MCF7, MCF-7, Breast-adenocarcinoma, read-out: Inhibitory Activity (GI50).
In assay [17] the test system is P388 lymphocytic leukemia. Put plainly: Cancer cell growth inhibition, murine P388 lymphocytic leukemia. It counts as cell-based, mouse. The source says: Earlier we had observed a number of biologically active blue to black colored fractions arising during P388 lymphocytic leukemia guided separations of a 195 g dichloromethane-soluble portion of the extract obtained from 350 kg (wet wt.) of Cribrochalina sp. The cancer cell growth (P-388) inhibitory dark-colored fractions were finally separated by a successive series of gel permeation and partition chromatographic techniques on Sephadex LH-20. That sequence was followed by high-speed countercurrent distribution using an Ito Coil-Planet centrifuge to afford 88 mg of a dark-blue constituent (P388 ED50 0.3 μg/ml), designated cribrostatin 6 (3). Owing to difficulties in unequivocally deducing the structure of this interesting substance based on spectral evidence, attempts were made at various times over a ten year period to reach a correct solution and/or to produce crystals suitable for X-ray structure determination. We were eventually pleased to find that cribrostatin 6 (3) would crystallize from acetone following long cold storage of the solution. To follow is a summary of the spectral and X-ray crystallographic interpretation that completed a correct structural assignment for cribrostatin 6 (3).
Isolation of Cribrostatin 6 (1). The blue marine sponge Cribrochalina sp. was collected and extracted as known to one of skill in the art, as described in Pettit, G., et al., J. Nat. Prod. […]

A further assay has as its system BXPC-3. Put plainly: Cancer cell growth inhibition, human cancer cell line panel. It counts as cell-based. To be noted: BXPC-3, Pancreas-adenocarcinoma, read-out: Inhibitory Activity (GI50).
A further assay relates to KM20L2. Described as above. It counts as cell-based. To be noted: KM-20L2, KM20L2, Colon-adenocarcinoma, read-out: Inhibitory Activity (GI50).
The subject of another assay is SF-268. Described as above. In kind it is cell-based. To be noted: SF-268, CNS Glioblastoma, read-out: Inhibitory Activity (GI50).
A further assay relates to NCI-H460. Described as above. It counts as cell-based. To be noted: NCI-H460, Lung-NSC, read-out: Inhibitory Activity (GI50).
The subject of another assay is DU-145. The description is as above. It counts as cell-based. To be noted: DU-145, Prostate, read-out: Inhibitory Activity (GI50).

In brackets after ≈: the same amount, converted by molar mass.

Turning to `CC1=C(N)C(=O)c2c(ccnc2C)C1=O` [Cribrostatin 1], the antifungal activity entry in the assay with fungi is given as “not antifungal”. In addition, the antibacterial activity entry in the assay on bacteria is recorded as “antibacterial”.

For the compound `C/C=C(/C)C(=O)OCc1nccc2c1C(=O)C(N)=C(C)C2=O` [Cribrostatin 3], the antifungal activity result in the assay on fungi is on record as “not antifungal”. The antibacterial activity result in the assay with bacteria is recorded as “antibacterial”.

With `CCOC1=C(C)C(=O)c2ccn3c(C)ncc3c2C1=O` [Cribrostatin 6, 9-ethoxy-3,8-dimethyl-imidazo[5,1-a]isoquinoline-7, 10-dione], the MIC in assay [1] is 2 µg/mL (≈ 7.4 µM); in assay [2], 1 µg/mL (≈ 3.7 µM); in assay [3] it was 16 µg/mL (≈ 59.2 µM); in assay [4], above 64 µg/mL; in [5], 0.0625 µg/mL (≈ 0.231 µM); in assay [6], 64 µg/mL (≈ 237 µM). Besides, the MIC in assay [7] was 0.5 µg/mL (≈ 1.85 µM); in assay [8], above 64 µg/mL; in [9], 16 µg/mL (≈ 59.2 µM); in [10], 16 µg/mL (≈ 59.2 µM); in assay [11], 32 µg/mL (≈ 118 µM); in assay [12] it was 16 µg/mL (≈ 59.2 µM). The MIC in assay [13] was 2 µg/mL (≈ 7.4 µM); in assay [14] it was above 64 µg/mL; in [15], 32 µg/mL (≈ 118 µM); in [16], 2 µg/mL (≈ 7.4 µM). Besides, the 50% growth inhibitory concentration (GI50) was 0.21 µg/mL (≈ 0.777 µM) in the assay on MCF-7; 0.29 µg/mL (≈ 1.07 µM) in [17] (P388, Mouse Leukemia, read-out: Inhibitory Activity (GI50)); above 1 µg/mL in the assay with BXPC-3; above 1 µg/mL with KM20L2; 0.24 µg/mL (≈ 0.888 µM) in the assay with SF-268; above 1 µg/mL with NCI-H460. For the same compound, the GI50 with DU-145 was 0.38 µg/mL (≈ 1.41 µM). Besides, the “P388 ED50” value in [17] (murine P-388 lymphocytic leukemia cell line) was determined as 0.3 µg/mL.
